The target of experiment [1] is T1, Purine nucleoside phosphorylase (Homo sapiens, UniProt P00491).
T1 sequence (P00491 whole entry): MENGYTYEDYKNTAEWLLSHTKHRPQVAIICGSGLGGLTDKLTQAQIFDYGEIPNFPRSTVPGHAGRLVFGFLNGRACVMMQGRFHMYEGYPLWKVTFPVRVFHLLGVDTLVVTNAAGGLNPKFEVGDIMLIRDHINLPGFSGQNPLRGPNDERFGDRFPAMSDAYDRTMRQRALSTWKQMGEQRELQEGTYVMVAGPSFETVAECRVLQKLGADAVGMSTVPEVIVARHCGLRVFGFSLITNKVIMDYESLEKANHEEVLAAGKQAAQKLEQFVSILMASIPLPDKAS
The experiment is described as follows: (§1) Compound was evaluated for inhibition of PNP-catalyzed inosine phosphorylation in human erythrocyte. It is filed as functional.

The target in experiment [2] is T1, Purine nucleoside phosphorylase. The description is as §1.

SMILES strings stand for the structures.

On to `O=P(O)(O)C(F)(F)C[C@H]1COC[C@@H]1Cn1cnc2c(O)ncnc21`, for which, in experiment [1], half-maximal inhibition (IC50) required 320 nM.

In the case of `O=c1[nH]cnc2c1ncn2CC[C@@H]1C[C@H]1C(F)(F)P(=O)(O)O`, 340 nM corresponded to half-maximal inhibition in experiment [1] (IC50). The compound further yielded a Ki in experiment [2] of 8.8 nM.

On to `Nc1nc2c(ncn2CCCCC(F)(F)P(=O)(O)O)c(=O)[nH]1`, for which the IC50 in experiment [1] came out at 380 nM. In experiment [2], this compound registered a Ki of 53 nM.

For `Nc1nc2c(ncn2CC[C@@H]2C[C@H]2C(F)(F)P(=O)(O)O)c(=O)[nH]1` (racemic), the IC50 in experiment [1] was 330 nM. This compound also gave a Ki in experiment [2] of 28.2 nM.

The compound `O=P(O)(O)C(F)(F)C[C@H]1COC[C@H]1Cn1cnc2c(O)ncnc21` registered an IC50 in experiment [1] of 88 nM. The compound further had a Ki in experiment [2] of 15.2 nM.

The IC50 is the concentration needed to halve the response being measured. A word on the Ki: it is the dissociation constant of the complex between target and ligand, obtained from inhibition or displacement. A lower Ki goes with a stronger hold on the target.

(Values after ChEMBL document CHEMBL1131998, “Synthesis and biological evaluation of 1,1-difluoro-2-(tetrahydro-3-furanyl)ethylphosphonic acids possessing a N9-purinylmethyl functional group at the ring. a new class of inhibitors for purine nucleoside phosphorylases” (Bioorg Med Chem Lett, 1999).)
